The text below walks through data of article PMC11088877, “AMP-activated protein kinase can be allosterically activated by ADP but AMP remains the key activating ligand” (Biochemical Journal, 2024).

Values joined by “and” are separate entries in the source; they are usually repeats but may differ in a detail not shown here. Identical values can stand only once.

Format in all cases: biochemical
The target in test [1] is T1, human α2β2γ1 complex, CBS3 mutant (V276G/L277G) (Homo sapiens, UniProt P54619+P54646, L277G/V276G).
T1 construct: made in house; host or cells: Escherichia coli
T1 sequence (P54619 whole entry V276G/L277G): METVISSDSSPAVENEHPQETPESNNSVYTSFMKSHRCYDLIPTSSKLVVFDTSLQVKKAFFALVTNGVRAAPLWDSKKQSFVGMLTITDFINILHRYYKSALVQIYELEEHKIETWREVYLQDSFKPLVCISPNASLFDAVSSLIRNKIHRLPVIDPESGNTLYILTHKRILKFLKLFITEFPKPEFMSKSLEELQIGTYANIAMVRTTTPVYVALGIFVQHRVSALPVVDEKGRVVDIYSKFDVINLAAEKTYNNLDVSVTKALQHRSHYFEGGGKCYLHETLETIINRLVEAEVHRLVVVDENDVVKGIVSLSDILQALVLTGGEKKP
T1 sequence (P54646 whole entry): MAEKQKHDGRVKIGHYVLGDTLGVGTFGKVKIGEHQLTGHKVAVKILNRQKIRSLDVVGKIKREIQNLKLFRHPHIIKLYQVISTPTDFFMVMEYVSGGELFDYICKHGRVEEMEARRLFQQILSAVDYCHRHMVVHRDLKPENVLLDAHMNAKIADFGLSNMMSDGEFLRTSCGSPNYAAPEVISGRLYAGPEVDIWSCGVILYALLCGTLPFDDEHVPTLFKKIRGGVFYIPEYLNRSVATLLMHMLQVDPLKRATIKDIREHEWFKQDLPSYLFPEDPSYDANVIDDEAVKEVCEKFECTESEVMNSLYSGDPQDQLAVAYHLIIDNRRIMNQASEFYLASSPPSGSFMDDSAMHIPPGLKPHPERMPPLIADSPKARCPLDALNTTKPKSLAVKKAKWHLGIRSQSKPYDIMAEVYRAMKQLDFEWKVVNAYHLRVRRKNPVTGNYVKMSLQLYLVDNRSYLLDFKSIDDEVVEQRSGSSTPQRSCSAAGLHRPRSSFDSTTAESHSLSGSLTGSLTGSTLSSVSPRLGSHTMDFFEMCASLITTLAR
T1 sequence (O43741 whole entry partner): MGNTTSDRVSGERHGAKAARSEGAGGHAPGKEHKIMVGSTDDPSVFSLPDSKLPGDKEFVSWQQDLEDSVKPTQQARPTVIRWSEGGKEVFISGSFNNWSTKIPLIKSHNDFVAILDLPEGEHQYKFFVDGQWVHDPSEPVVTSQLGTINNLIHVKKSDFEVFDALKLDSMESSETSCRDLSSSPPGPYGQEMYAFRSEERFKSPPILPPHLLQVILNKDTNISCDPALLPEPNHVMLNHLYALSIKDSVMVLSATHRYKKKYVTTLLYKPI
The test is described as follows: Allosteric activation of CBS3 mutant human α2β2γ1 AMPK complex. An excerpt:
(§1) To study allosteric activation with a more well-defined AMPK complex, and to study the effects of mutations in individual adenine nucleotide-binding sites on the γ subunit, we expressed a human α2β2γ1 complex in Escherichia coli and purified it utilizing the polyhistidine tag at the N-terminus of the α2 subunit. […] However, it had not been co-expressed with an N-myristoyl transferase so would not have been N-myristoylated on the β2 subunit. The complex was expressed not only with the WT γ1 sequence but also with mutations affecting hydrophobic residues previously shown to be involved in binding of the adenine moieties of nucleotides at CBS1 (L129D/V130D), CBS3 (V276G/L277G) and CBS4 (I312G). All four complexes co-purified as heterotrimeric 1:1:1 complexes as expected, and were phosphorylated and activated equally well either by CaMKK2 or the LKB1: STRADα:MO25α complex (Supplementary Figure S2). For the studies described below we phosphorylated Thr172 using a GST-tagged CaMKK2 and repurified AMPK using size exclusion chromatography and a glutathione-Sepharose column, which remove CaMKK2.
(§2) Figure 4. Allosteric activation of WT and mutant human α2β2γ1 AMPK complex by AMP and ADP at three different concentrations of ATP. The α2β2γ1 complex was phosphorylated on Thr172 prior to assay using CaMKK2. The γ1 subunit was either (A/E): WT; (B/F): a CBS1 mutant (L129D/V130D); (C/G): a CBS3 mutant (V276G/L277G); (D/H): a CBS4 mutant (I312G). Results are means of duplicate assays ± SD; error bars are not shown if they were smaller than the symbols used for mean values. Assays and curve fitting were as in Figure 1 at either 0.2 mM (left panels) or 5 mM (right panels) ATP. Best-fit values for all parameters used to generate the curves are listed in Supplementary Table S1.
(§3) Sources of antibodies were as described: pThr172 (AMPK-α: Cell Signaling Technologies, Danvers, MA, U.S.A., Cat# 2535), AMPK-α2 [22]. Rat liver AMPK was purified as described previously. Plasmid encoding human (His)6-tagged AMPK (α2β2γ1, bacterially expressed) generated as in [23], was a gift from AstraZeneca, Cambridge, U.K. The L129D/V130D (CBS1), V276G/L277G (CBS3) and I312G (CBS4) mutations in the α2β2γ1 complex were generated using the Quikchange II site-directed mutagenesis kit (Agilent Technologies) and confirmed by DNA sequencing. Human GST-tagged α2 kinase domain (1–310), LKB1:STRAD-α:MO25-α complexes, GST-tagged CaMKK2 [26], and PPM1A (PP2Cα) were produced as described. Bacterially expressed heterotrimers were activated by phosphorylation of Thr172 by GST-tagged CaMKK2 in the presence of ATP, and CaMKK2 was subsequently removed by passage through glutathione-Sepharose. Human GST-tagged α2 kinase domain was activated in a similar manner except that human (His)6-tagged LKB1:STRAD-α:MO25-α complex was used and removed after activation via passage through a His-Trap column. Recombinant human 5′-nucleotidase, CD73, Cat # 5795-EN-01, was from R&D systems (Minneapolis, MN, U.S.A.).
(§4) AMPK assays measured the transfer of radioactivity from [γ-^33P]ATP to a peptide substrate, which was separated from unreacted ATP by binding to P81 paper. This assay was described previously except that we used [γ-^33P] rather than [γ-^32P]ATP. In some assays (specified in Figure legends) the concentration of ATP was increased from 0.2 to 1 or 5 mM ATP, with MgCl2 concentrations maintained at a constant 4.8 mM excess above the concentration of ATP [19]. Where allosteric activation by AMP or ADP was being studied, we used the SAMS peptide as substrate. For all other assays the AMARA peptide was used.

Test [2] concerns the target T2, human α2β2γ1 complex, CBS1 mutant (L129D/V130D) (Homo sapiens, UniProt P54619+P54646, L129D/V130D).
T2 construct: made in house; host or cells: Escherichia coli
In words: Allosteric activation of CBS1 mutant human α2β2γ1 AMPK complex.
Excerpt: as §1, §2, §3, §4

In test [3] the target is T3, human α2β2γ1 complex, CBS4 mutant (I312G) (Homo sapiens, UniProt P54619+P54646, I312G).
T3 construct: made in house; host or cells: Escherichia coli
T3 sequence (P54619 whole entry I312G): as the sequence (P54619 whole entry V276G/L277G) above, with G276V, G277L, I312G counted along it
T3 sequence (P54646 whole entry): as the sequence (P54646 whole entry) above
T3 sequence (O43741 whole entry partner): as the sequence (O43741 whole entry partner) above
In words: Allosteric activation of CBS4 mutant human α2β2γ1 AMPK complex. Particulars: for Activation (maximal) / IC50 / EC50 / IC50/EC50: α2β2γ1 CBS4 mutant.
Excerpt: as §1, §2, §3, §4

T2 sequence (P54619 whole entry L129D/V130D): as the sequence (P54619 whole entry V276G/L277G) above, with L129D, V130D, G276V, G277L counted along it
T2 sequence (P54646 whole entry): as the sequence (P54646 whole entry) above
T2 sequence (O43741 whole entry partner): as the sequence (O43741 whole entry partner) above

With `Nc1ncnc2c1ncn2[C@@H]1O[C@H](COP(=O)(O)OP(=O)(O)O)[C@@H](O)[C@H]1O` [ADP], the “Activation (maximal)” value in test [1] (α2β2γ1 CBS3 mutant, 0.2 mM ATP) is “did not cause allosteric activation and none”; in test [1] (α2β2γ1 CBS3 mutant, 5.0 mM ATP), “essentially abolished allosteric activation”; in test [2] (0.2 mM ATP), “did not cause allosteric activation and none”; in test [2] (5.0 mM ATP), “abolished allosteric activation and essentially abolished allosteric activation and none”; in test [3] (0.2 mM ATP), “did not cause allosteric activation and none”; in test [3] (5.0 mM ATP), “essentially abolished allosteric activation and none”. Further, the IC50 (as a rule, the concentration needed to halve the response being measured) in test [1] (α2β2γ1 CBS3 mutant, 0.2 mM ATP) is 500 µM; in test [1] (α2β2γ1 CBS3 mutant, 5.0 mM ATP), 7600 µM; in test [2] (0.2 mM ATP), 1000 µM; in test [3] (0.2 mM ATP) it was 780 µM; in test [3] (5.0 mM ATP), 31000 µM.
Take `Nc1ncnc2c1ncn2[C@@H]1O[C@H](COP(=O)(O)O)[C@@H](O)[C@H]1O` [AMP]: the “increase of EC50 relative to WT” value was 10- to 20 fold in test [1] (α2β2γ1 CBS3 mutant vs WT, 5 mM ATP) and 10- to 20 fold in test [3] (α2β2γ1 CBS4 mutant vs WT, 5 mM ATP). Also, the “Activation (maximal)” value is 1.2 (1.1-1.2) fold in test [1] (α2β2γ1 CBS3 mutant, 0.2 mM ATP); 2.0- to 2.5 fold and 2.3 (2.1-2.7) fold in test [1] (α2β2γ1 CBS3 mutant, 5.0 mM ATP); 2.4 (2.3-2.4) fold in test [2] (0.2 mM ATP); 2.4 fold and 2.3 fold in test [2] (5.0 mM ATP); 2.1 fold and 2.1 (2.0-2.1) fold in test [3] (0.2 mM ATP); 2.0- to 2.5 fold and 2.1 (1.9-2.4) fold in test [3] (5.0 mM ATP). Also, the 50% effective concentration (EC50) (commonly the concentration that produces a half-maximal response) in test [1] (α2β2γ1 CBS3 mutant, 0.2 mM ATP) was found to be 2.9 µM; in test [1] (α2β2γ1 CBS3 mutant, 5.0 mM ATP), 370 µM; in test [2] (0.2 mM ATP), 1.6 µM; in test [2] (5.0 mM ATP), 19 µM; in test [3] (0.2 mM ATP), 38 µM; in test [3] (5.0 mM ATP) it was 280 µM. The IC50 in test [1] (α2β2γ1 CBS3 mutant, 0.2 mM ATP) was 6100 µM; in test [1] (α2β2γ1 CBS3 mutant, 5.0 mM ATP), 40000 µM; in test [2] (0.2 mM ATP), 3400 µM; in test [2] (5.0 mM ATP), 52000 µM; in test [3] (0.2 mM ATP), 3300 µM; in test [3] (5.0 mM ATP), 28000 µM. The IC50/EC50 in test [1] (α2β2γ1 CBS3 mutant, 0.2 mM ATP) was determined as 2100; in test [1] (α2β2γ1 CBS3 mutant, 5.0 mM ATP), 110; in test [2] (0.2 mM ATP), 2100; in test [2] (5.0 mM ATP), 2700; in test [3] (0.2 mM ATP), 87; in test [3] (5.0 mM ATP) it was 100. In addition, in test [1] (α2β2γ1 CBS3 mutant, 0.2 mM ATP), the “activation over basal remaining” value is reported as 20%. The “increase of EC50 for activation relative to WT” value in test [3] (α2β2γ1 CBS4 mutant vs WT, 0.2 mM ATP) stood at 40 fold.
